Measurements from BigSolDB 2.1.

Q: For `C[C@H](O)[C@@H](O)[C@@H](O)[C@H](O)C=O`, which solubility (mole fraction) (in acetone, 288.15 K) is on record?
A: 0.00023

Q: And the solubility (mole fraction) (in acetone, 293.15 K)?
A: 0.00025

Q: What about the solubility (mole fraction) (in acetone, 298.15 K) of the same compound?
A: 0.00028

Q: What about the solubility (mole fraction) (in acetone, 303.15 K) of the same compound?
A: 0.00032

Q: What about the solubility (mole fraction) (in acetone, 308.15 K) of the same compound?
A: 0.00038

Q: And the solubility (mole fraction) (in ethanol, 288.15 K)?
A: 0.00032

Q: What about the solubility (mole fraction) (in ethanol, 293.15 K) of the same compound?
A: 0.00038

Q: And the solubility (mole fraction) (in ethanol, 298.15 K)?
A: 0.00043

Q: What about the solubility (mole fraction) (in ethanol, 303.15 K) of the same compound?
A: 0.00057

Q: What about the solubility (mole fraction) (in ethanol, 308.15 K) of the same compound?
A: 0.00071

Q: And the solubility (mole fraction) (in isopropanol, 288.15 K)?
A: 0.00014

Q: What about the solubility (mole fraction) (in isopropanol, 293.15 K) of the same compound?
A: 0.00024

Q: What about the solubility (mole fraction) (in isopropanol, 298.15 K) of the same compound?
A: 0.00032

Q: What about the solubility (mole fraction) (in isopropanol, 303.15 K) of the same compound?
A: 0.00043

Q: And the solubility (mole fraction) (in isopropanol, 308.15 K)?
A: 0.00056

Q: And the solubility (mole fraction) (in methanol, 288.15 K)?
A: 0.00216

Q: What about the solubility (mole fraction) (in methanol, 293.15 K) of the same compound?
A: 0.00244

Q: And the solubility (mole fraction) (in methanol, 298.15 K)?
A: 0.00275

Q: What about the solubility (mole fraction) (in methanol, 303.15 K) of the same compound?
A: 0.00307

Q: What about the solubility (mole fraction) (in methanol, 308.15 K) of the same compound?
A: 0.00345

Q: What about the solubility (mole fraction) (in water, 288.15 K) of the same compound?
A: 0.0512

Q: What about the solubility (mole fraction) (in water, 298.15 K) of the same compound?
A: 0.0979

Q: And the solubility (mole fraction) (in water, 303.15 K)?
A: 0.129

Q: What about the solubility (mole fraction) (in water, 308.15 K) of the same compound?
A: 0.174
